# Patent US10947242B2, “[1,2,4]triazolo[1,5and#8208;A]pyrimidine compounds as PDE2 inhibitors” (Janssen Pharmaceutica NV, priority 2016, dated 2021)
# Like-named read-outs stand apart in the source and are kept apart here.
# Assays:
# [1] = target: T1, Human recombinant PDE10A (hPDE10A) (Homo sapiens, UniProt Q9Y233); assay: In vitro assay PDE10A, human clone (SPA, 3H-cAMP hydrolysis); format: biochemical; settings: human clone (h), default; for Emax: read-out: hPDE10A2 Emax; for IC50: read-out: hPDE10A2 pIC50 (converted)
# T1 construct: His tag (inferred from metal chelate purification); made in house; host or cells: Sf9 insect cells (baculovirus)
# In short: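 Hydrolysis of 3H-cAMP (60 nM cAMP, 0.008 μCi tracer) proceeded for 60 min at room temperature, with the product detected by SPA bead scintillation counting. The enzyme was hPDE10A from baculovirus-infected Sf9 cells in Tris pH 7.8 buffer with MgCl2 and EGTA, and compounds were at 1% DMSO final. Blanks lacked enzyme.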
# [2] = target: T2, Human recombinant PDE3A (hPDE3A) (Homo sapiens, UniProt Q14432); assay: In vitro assay PDE3A (SPA, 3H-cAMP hydrolysis); format: biochemical; settings: for IC50: hPDE3B pIC50, read-out: pIC50 (converted); for Emax: read-out: hPDE3B Emax, read-out: Emax;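 as to all read-outs here: the method names PDE3A and the table heading PDE3B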
# T2 construct: purchased Scottish Biomedical; host or cells: Sf9 insect cells
# In short: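 Radiometric SPA measuring [3H]-cAMP hydrolysis (0.4 μM cAMP, 2.4 μCi/ml) over 60 min at room temperature, in Tris pH 7.8 buffer with MgCl2 and EGTA, 1% DMSO. Enzyme: recombinant human brain PDE3A expressed in Sf9 cells, used as partially purified lysate. Counts compared with enzyme-free blanks and vehicle controls.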
# [3] = target: T3, Human recombinant PDE2A (hPDE2A) (Homo sapiens, UniProt O00408); assay: In vitro assay PDE2A (SPA, 3H-cGMP hydrolysis); format: biochemical; settings: for Emax: read-out: hPDE2A Emax
# T3 construct: His tag (inferred from metal chelate purification); made in house; host or cells: Sf9 insect cells (baculovirus)
# PDE2A = target: T4, PDE2A (Rattus norvegicus, UniProt Q01062); assay: PDE2 occupancy by test compounds, ex-vivo autoradiography with [3H]B-17a; format: in vivo, Male Wistar rats; settings: for receptor occupancy at 10 mg/kg: percentage receptor occupancy, ex-vivo autoradiography, striatum; for ED50: drug dose producing 50% receptor occupancy, read-out: PDE Occupancy ED50
# T4 construct: Twenty μm-thick striatal sections were cut; from tissue; host or cells: rat brain, striatal sections
# T4 sequence (Q01062 1-928): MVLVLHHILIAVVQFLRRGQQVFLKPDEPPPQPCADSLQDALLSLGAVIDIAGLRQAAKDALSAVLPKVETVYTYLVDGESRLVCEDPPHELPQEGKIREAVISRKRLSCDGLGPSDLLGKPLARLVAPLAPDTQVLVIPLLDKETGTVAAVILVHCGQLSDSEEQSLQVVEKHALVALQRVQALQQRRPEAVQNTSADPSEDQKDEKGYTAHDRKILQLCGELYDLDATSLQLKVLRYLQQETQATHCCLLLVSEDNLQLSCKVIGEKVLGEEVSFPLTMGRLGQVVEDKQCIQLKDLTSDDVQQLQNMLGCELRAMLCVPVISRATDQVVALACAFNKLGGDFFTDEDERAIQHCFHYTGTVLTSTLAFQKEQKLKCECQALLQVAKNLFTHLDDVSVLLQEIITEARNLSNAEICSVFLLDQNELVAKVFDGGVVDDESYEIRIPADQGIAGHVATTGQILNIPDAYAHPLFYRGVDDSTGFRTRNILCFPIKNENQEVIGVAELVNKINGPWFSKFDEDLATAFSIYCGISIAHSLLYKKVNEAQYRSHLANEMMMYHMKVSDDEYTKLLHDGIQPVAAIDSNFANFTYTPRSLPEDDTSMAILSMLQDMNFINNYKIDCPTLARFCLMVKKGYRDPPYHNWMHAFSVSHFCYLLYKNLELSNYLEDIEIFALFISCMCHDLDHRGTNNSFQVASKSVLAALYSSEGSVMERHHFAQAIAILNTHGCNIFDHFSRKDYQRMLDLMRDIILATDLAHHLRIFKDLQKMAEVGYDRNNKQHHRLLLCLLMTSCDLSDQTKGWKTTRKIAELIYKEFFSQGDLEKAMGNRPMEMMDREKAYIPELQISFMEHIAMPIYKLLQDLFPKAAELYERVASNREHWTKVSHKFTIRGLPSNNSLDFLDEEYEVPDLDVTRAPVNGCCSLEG
# [4] = hPDE2A pIC50, human recombinant PDE2A, 10 μM cGMP substrate
# [5] = human recombinant PDE2A, 10 μM cGMP substrate, read-out: hPDE2A pIC50 (converted)
# [6] = read-out: hPDE2A pIC50 (converted)
# T1 sequence (Q9Y233 267-1055): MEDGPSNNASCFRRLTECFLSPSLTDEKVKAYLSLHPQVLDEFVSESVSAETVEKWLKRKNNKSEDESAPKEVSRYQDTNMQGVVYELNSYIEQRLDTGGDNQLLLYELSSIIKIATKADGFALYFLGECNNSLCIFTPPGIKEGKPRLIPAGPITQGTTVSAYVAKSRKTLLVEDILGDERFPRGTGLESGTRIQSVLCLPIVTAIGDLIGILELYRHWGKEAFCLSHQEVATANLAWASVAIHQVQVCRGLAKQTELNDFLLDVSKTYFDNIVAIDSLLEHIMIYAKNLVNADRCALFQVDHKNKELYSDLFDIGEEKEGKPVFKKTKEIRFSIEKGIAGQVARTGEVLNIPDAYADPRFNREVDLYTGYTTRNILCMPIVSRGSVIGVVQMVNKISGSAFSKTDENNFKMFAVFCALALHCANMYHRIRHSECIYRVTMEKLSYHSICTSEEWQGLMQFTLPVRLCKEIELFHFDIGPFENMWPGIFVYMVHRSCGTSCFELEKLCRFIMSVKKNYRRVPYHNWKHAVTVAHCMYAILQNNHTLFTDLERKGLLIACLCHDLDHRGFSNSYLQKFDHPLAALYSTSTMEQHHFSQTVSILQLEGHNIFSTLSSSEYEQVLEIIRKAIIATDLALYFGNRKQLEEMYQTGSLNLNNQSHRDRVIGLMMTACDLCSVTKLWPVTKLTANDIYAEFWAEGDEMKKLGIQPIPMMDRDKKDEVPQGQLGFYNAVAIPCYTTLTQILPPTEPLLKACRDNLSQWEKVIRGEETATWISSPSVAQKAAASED
# T2 sequence (Q14432 whole entry): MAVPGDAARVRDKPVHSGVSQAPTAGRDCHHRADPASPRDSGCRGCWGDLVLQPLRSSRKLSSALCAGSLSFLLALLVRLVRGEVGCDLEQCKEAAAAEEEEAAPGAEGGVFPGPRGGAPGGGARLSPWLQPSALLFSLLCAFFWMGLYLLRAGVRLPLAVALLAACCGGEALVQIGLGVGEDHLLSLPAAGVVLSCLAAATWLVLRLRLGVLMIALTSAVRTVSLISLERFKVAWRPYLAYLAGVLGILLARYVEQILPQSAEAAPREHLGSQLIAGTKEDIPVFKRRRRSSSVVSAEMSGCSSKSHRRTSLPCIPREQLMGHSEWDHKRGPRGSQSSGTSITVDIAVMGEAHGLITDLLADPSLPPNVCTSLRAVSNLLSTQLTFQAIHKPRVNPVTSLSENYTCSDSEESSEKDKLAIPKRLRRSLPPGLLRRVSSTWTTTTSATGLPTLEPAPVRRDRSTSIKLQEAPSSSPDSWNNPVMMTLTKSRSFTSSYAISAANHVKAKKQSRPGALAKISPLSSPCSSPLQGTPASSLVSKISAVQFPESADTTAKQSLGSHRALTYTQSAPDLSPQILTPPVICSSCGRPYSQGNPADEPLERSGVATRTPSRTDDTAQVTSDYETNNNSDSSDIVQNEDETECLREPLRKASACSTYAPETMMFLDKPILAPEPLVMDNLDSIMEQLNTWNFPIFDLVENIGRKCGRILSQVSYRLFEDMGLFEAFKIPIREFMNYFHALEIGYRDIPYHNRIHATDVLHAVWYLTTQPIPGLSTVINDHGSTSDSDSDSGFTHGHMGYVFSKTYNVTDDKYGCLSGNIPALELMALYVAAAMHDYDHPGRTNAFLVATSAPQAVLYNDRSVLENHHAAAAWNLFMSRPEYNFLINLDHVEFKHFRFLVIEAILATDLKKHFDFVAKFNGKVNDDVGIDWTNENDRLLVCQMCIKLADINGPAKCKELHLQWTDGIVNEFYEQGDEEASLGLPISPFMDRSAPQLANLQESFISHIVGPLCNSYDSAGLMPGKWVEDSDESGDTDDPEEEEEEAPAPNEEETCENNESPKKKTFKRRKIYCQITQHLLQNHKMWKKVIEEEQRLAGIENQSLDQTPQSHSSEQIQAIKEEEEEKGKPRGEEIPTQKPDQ
# T3 sequence (O00408 whole entry): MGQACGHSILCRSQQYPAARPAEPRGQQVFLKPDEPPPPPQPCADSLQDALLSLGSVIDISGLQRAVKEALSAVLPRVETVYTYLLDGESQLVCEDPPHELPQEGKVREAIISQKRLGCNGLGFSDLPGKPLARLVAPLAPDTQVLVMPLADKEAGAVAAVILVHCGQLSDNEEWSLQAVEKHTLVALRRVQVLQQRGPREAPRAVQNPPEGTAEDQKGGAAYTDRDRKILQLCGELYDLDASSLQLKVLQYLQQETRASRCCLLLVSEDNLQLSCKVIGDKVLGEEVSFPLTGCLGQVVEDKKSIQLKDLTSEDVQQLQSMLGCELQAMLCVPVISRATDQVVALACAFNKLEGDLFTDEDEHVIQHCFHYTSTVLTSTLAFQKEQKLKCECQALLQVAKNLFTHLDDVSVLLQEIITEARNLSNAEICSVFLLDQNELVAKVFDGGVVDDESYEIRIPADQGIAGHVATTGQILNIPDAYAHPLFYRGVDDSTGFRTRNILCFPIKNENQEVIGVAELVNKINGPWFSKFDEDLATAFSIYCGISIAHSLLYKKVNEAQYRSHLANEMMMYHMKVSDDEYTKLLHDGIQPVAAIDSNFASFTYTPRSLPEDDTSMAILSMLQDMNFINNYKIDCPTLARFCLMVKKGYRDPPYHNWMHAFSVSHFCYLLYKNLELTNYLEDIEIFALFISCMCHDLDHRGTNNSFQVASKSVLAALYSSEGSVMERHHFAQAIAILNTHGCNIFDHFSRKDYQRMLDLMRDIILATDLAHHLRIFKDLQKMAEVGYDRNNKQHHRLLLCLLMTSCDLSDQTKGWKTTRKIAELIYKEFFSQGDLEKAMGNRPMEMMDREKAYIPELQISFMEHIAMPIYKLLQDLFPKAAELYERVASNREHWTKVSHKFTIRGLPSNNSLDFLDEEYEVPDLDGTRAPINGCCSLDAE
Compound,Emax [1] [%],IC50 [1] [nM],IC50 [2] [nM],Emax [2] [%],Emax [3] [%],"receptor occupancy at 10 mg/kg (PDE2A; po, route PO (oral)) [%]","receptor occupancy at 10 mg/kg (PDE2A; sc, route SC (subcutaneous)) [%]","IC50 [3, 5] [nM]",Emax ([3]; human recombinant PDE2A) [%],"IC50 [3, 6] [nM]",ED50 (PDE2A; route PO (oral)) [mg/kg],IC50 ([3]; hPDE2A pIC50) [nM],"IC50 [3, 4] [nM]"
Cc1cc(C(=O)N2CC[C@@H](C)[C@H](c3cc(C(F)F)nc4ncnn34)C2)cc(C)c1Cl [Compound 76],101,31.6,1230,91,99,17,–,–,–,–,–,0.229,0.229
Cc1cc(C(=O)N2CC[C@@H](C)[C@H](c3cc(C(F)F)nc4ncnn34)C2)cc(C)c1C#N [Compound 78],98,105,1580,87,102,–,77,–,–,–,–,1,1
Cc1cc(C(=O)N2CC[C@@H](C)[C@](F)(c3cc(C(F)F)nc4ncnn34)C2)cc(C)n1 [Compound 82],18,> 10000,> 10000,9,101,28,–,33.9,101,33.9,–,–,–
Cc1cc(C(=O)N2CC[C@@H](C)[C@H](c3cc(C(F)F)nc4ncnn34)C2)cc(Cl)n1 [Compound 83],98,97.7,7940,58,100,82,–,–,–,–,–,0.933,0.933
C[C@@H]1CCN(C(=O)c2cc(OC(F)F)cc(C3CC3)c2)C[C@H]1c1cc(C(F)F)nc2ncnn12 [Compound 91],94,22.4,708,61,100,-7,–,0.372,100,0.372,–,–,–
C[C@@H]1CCN(C(=O)c2ccc3c(c2)OCCC3)C[C@H]1c1cc(C(F)F)nc2ncnn12 [Compound 96],95,33.1,398,73,100,1,–,0.55,100,0.55,–,–,–
C[C@@H]1CCN(C(=O)c2ccc(C3CC3)c(F)c2)C[C@H]1c1cc(C(F)F)nc2ncnn12 [Compound 103],100,18.2,87.1,100,99,–,42,0.708,99,0.708,–,–,–
Cc1cc(C(=O)N2CC[C@@H](C)[C@H](c3cc(C(F)F)nc4ncnn34)C2)cc(OC(C)C)n1 [Compound 107],99,81.3,4170,61,100,29,–,0.912,100,0.912,–,–,–
Cc1cc([C@@H]2CN(C(=O)c3cc(C)c(Cl)c(C)c3)CC[C@H]2C)n2ncnc2n1 [Compound 109],99,6.61,457,98,101,43,–,–,–,–,–,0.933,0.933
Cc1cc(C(=O)N2CC[C@@H](C)[C@H](c3cc(C(F)F)nc4ncnn34)C2)cc(C)c1F [Compound 115],99,77.6,1950,87,100,23,–,–,–,–,–,1.05,1.05
Cc1cc([C@@H]2CN(C(=O)c3cc(C)c(F)c(C)c3)CC[C@H]2C)n2ncnc2n1 [Compound 117],99,9.77,851,97,100,8,–,–,–,–,–,1.15,–
COc1cc(C(=O)N2CC[C@@H](C)[C@H](c3cc(C(F)F)nc4ncnn34)C2)nc2ccccc12 [Compound 125],96,589,589,96,100,-16,–,2.09,100,2.09,–,–,–
COc1ncc(C(=O)N2CC[C@@H](C)[C@H](c3cc(C(F)F)nc4ncnn34)C2)cc1Cl [Compound 134],100,158,2240,84,101,21,–,3.16,101,3.16,–,–,–

# Second part, led by results:
Emax [1] [%],IC50 [1] [nM],IC50 [2] [nM],Emax [2] [%],Emax [3] [%],"receptor occupancy at 10 mg/kg (PDE2A; po, route PO (oral)) [%]","receptor occupancy at 10 mg/kg (PDE2A; sc, route SC (subcutaneous)) [%]","IC50 [3, 5] [nM]",Emax ([3]; human recombinant PDE2A) [%],"IC50 [3, 6] [nM]",ED50 (PDE2A; route PO (oral)) [mg/kg],Compound,IC50 ([3]; hPDE2A pIC50) [nM],"IC50 [3, 4] [nM]"
98,81.3,4170,71,100,–,52,0.794,100,0.794,8.63,CCc1cc(C(=O)N2CC[C@@H](C)[C@H](c3cc(C(F)F)nc4ncnn34)C2)cc(C)n1 [Compound 80],–,–
89,708,7410,30,101,45,–,3.16,101,3.16,14.1,Cc1cc(C(=O)N2CC[C@@H](C)[C@H](c3cc(C(F)F)nc4ncnn34)C2)c(F)cn1 [Compound 84],–,–
88,1200,7760,37,100,–,1,6.46,100,6.46,–,Cc1ccc(C(=O)N2CC[C@@H](C)[C@H](c3cc(C(F)F)nc4ncnn34)C2)nc1C [Compound 85],–,–
102,19.5,214,98,101,–,73,0.355,101,0.355,–,C[C@@H]1CCN(C(=O)c2ccn3cccc3c2)C[C@H]1c1cc(C(F)F)nc2ncnn12 [Compound 90],–,–
100,9.55,2090,87,100,1,–,0.603,100,0.603,–,Cc1cc([C@@H]2CN(C(=O)c3ccc4nccn4c3)CC[C@H]2C)n2ncnc2n1 [Compound 99],–,–
98,57.5,4790,70,101,–,43,0.661,101,0.661,–,Cc1cc(C(=O)N2CC[C@@H](C)[C@H](c3cc(C(F)F)nc4ncnn34)C2)cc(C(C)C)n1 [Compound 101],–,–
96,58.9,513,95,99,-15,–,1.78,99,1.78,–,C[C@@H]1CCN(C(=O)c2ccc(Cl)c(OC(F)F)c2)C[C@H]1c1cc(C(F)F)nc2ncnn12 [Compound 121],–,–
78,2400,> 10000,20,99,-11,–,28.8,99,28.8,–,C[C@@H]1CCN(C(=O)c2ccn(C)n2)C[C@H]1c1cc(C(F)F)nc2ncnn12 [Compound 139],–,–
